Several values for one entry are separate records, joined by “and”; a condition that tells them apart may be missing. Equal values may be shown once. Toxic doses and inconclusive results are not listed.
System: BDF1 mice, B16 melanoma ip, median survival T/C
Assay: NCI In Vivo Anticancer Drug Screen. Data for tumor model B16 Melanoma (intraperitoneal) in B6D2F1 (BDF1) mice
Settings: endpoint: median survival time, higher = longer survival
Method in brief: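 Read-out: survival or tumor size, given as treated/control ratio. Controls received vehicle only; animals bore transplantable tumors.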

[1] = dose: 12.5 mg/kg/injection, schedule: Q01DX009 (ip), vehicle: saline with Tween-80
[2] = dose: 25.0 mg/kg/injection, schedule: Q01DX009 (ip), vehicle: saline with Tween-80
[3] = dose: 50.0 mg/kg/injection, schedule: Q01DX009 (ip), vehicle: saline with Tween-80
[4] = dose: 100.0 mg/kg/injection, schedule: Q01DX009 (ip), vehicle: saline with Tween-80
[5] = dose: 200.0 mg/kg/injection, schedule: Q01DX009 (ip), vehicle: saline with Tween-80
[6] = dose: 400.0 mg/kg/injection, schedule: Q01DX009 (ip), vehicle: saline with Tween-80
[7] = dose: 12.5 mg/kg/injection, schedule: Q01DX009 (ip), vehicle: saline
[8] = dose: 50.0 mg/kg/injection, schedule: Q01DX009 (ip), vehicle: saline
[9] = dose: 100.0 mg/kg/injection, schedule: Q01DX009 (ip), vehicle: saline
[10] = dose: 100.0 mg/kg/injection, schedule: Q04DX003 (ip), vehicle: Klucel (hydroxypropylcellulose) (HPC)
[11] = dose: 200.0 mg/kg/injection, schedule: Q04DX003 (ip), vehicle: Klucel (hydroxypropylcellulose) (HPC)
[12] = dose: 400.0 mg/kg/injection, schedule: Q04DX003 (ip), vehicle: Klucel (hydroxypropylcellulose) (HPC)
[13] = dose: 200.0 mg/kg/injection, schedule: Q01DX009 (ip), vehicle: saline
[14] = dose: 25.0 mg/kg/injection, schedule: Q01DX009 (ip), vehicle: Klucel (hydroxypropylcellulose) (HPC)
[15] = dose: 50.0 mg/kg/injection, schedule: Q01DX009 (ip), vehicle: Klucel (hydroxypropylcellulose) (HPC)
[16] = dose: 100.0 mg/kg/injection, schedule: Q01DX009 (ip), vehicle: Klucel (hydroxypropylcellulose) (HPC)
[17] = dose: 200.0 mg/kg/injection, schedule: Q01DX009 (ip), vehicle: Klucel (hydroxypropylcellulose) (HPC)
[18] = dose: 6.25 mg/kg/injection, schedule: Q01DX009 (ip), vehicle: saline
[19] = dose: 25.0 mg/kg/injection, schedule: Q01DX009 (ip), vehicle: saline
[20] = dose: 0.5 mg/kg/injection, schedule: Q01DX009 (ip), vehicle: saline
[21] = dose: 1.0 mg/kg/injection, schedule: Q01DX009 (ip), vehicle: saline
[22] = dose: 2.0 mg/kg/injection, schedule: Q01DX009 (ip), vehicle: saline
[23] = dose: 12.5 mg/kg/injection, schedule: Q01DX009 (ip), vehicle: Klucel (hydroxypropylcellulose) (HPC)

With Cc1ncc([N+](=O)[O-])n1CCSC(N)=O the T/C [1] was 97 % of control and 99 % of control, the T/C [2] was 95 % of control and 102 % of control and the T/C [3] was 101 % of control. The T/C [4] was 97 % of control and 101 % of control, the T/C [5] was 91 % of control and 96 % of control and the T/C [6] was 92 % of control.

In the case of CC(=O)NC(CC(C)C)C(=O)O (centres undefined), the T/C [2] is reported as 108 % of control, the T/C [3] is reported as 121 % of control and the T/C [4] is reported as 101 % of control.

With CC(=O)O[C@@]1(C)[C@@H](C)C(=O)O[C@@H]2CCN3CC=C(COC(=O)[C@]1(C)O)[C@H]23 the T/C [7] was 119 % of control, the T/C [8] was 119 % of control and the T/C [9] was 97 % of control.

With Cc1ccc(C(=O)C(c2ccccc2)C(Cl)c2ccccc2)cc1 (centres undefined) the T/C [10] was 102 % of control, the T/C [11] was 103 % of control and the T/C [12] was 103 % of control.

For CN(C)CCCCO, the T/C [8] was 96 % of control, the T/C [9] was 96 % of control and the T/C [13] was 89 % of control.

For CCC(C)NC(=O)Nc1cccc(Cl)c1C (centres undefined), the T/C [4] was 102 % of control and the T/C [5] was 96 % of control.

CC1(O)CC2CCC1C2 (centres undefined) was tested, and the T/C (dose: 100.0 mg/kg/injection, schedule: Q04DX003 (ip), vehicle: saline with Tween-80) was 102 % of control, the T/C (dose: 200.0 mg/kg/injection, schedule: Q04DX003 (ip), vehicle: saline with Tween-80) was 102 % of control and the T/C (dose: 400.0 mg/kg/injection, schedule: Q04DX003 (ip), vehicle: saline with Tween-80) was 100 % of control.

With C=CCN(CC=C)C(=O)CCN1CC1 the T/C (dose: 1.25 mg/kg/injection, schedule: Q01DX009 (ip), vehicle: saline) was 100 % of control, the T/C (dose: 1.25 mg/kg/injection, schedule: Q04DX003 (ip), vehicle: saline) was 102 % of control and the T/C (dose: 2.5 mg/kg/injection, schedule: Q01DX009 (ip), vehicle: saline) was 100 % of control. For the same molecule, the T/C (dose: 2.5 mg/kg/injection, schedule: Q04DX003 (ip), vehicle: saline) was 100 % of control, the T/C (dose: 5.0 mg/kg/injection, schedule: Q01DX009 (ip), vehicle: saline) was 100 % of control and the T/C (dose: 5.0 mg/kg/injection, schedule: Q04DX003 (ip), vehicle: saline) was 105 % of control.

O=C(CCl)NC(Cc1ccc(O)cc1)C(=O)O (centres undefined) was tested, and the T/C [2] was 105 % of control, the T/C [3] was 101 % of control and the T/C [4] was 95 % of control.

O=C1C(NC(=O)C2CCCCC2)=C(N2CC2)C(=O)C(NC(=O)C2CCCCC2)=C1N1CC1 was tested, and the T/C [14] was 109 % of control and the T/C [15] was 102 % of control.

In the case of O=C1NC(=O)/C(=C/c2ccccc2)N1, the T/C [16] is reported as 100 % of control and the T/C [17] is reported as 107 % of control.

COc1cccc2c1C(=O)c1c(O)c3c(c(O)c1C2=O)C[C@@](O)(C(C)=O)C[C@@H]3OC1CC(NC(C)=O)C(O)C(C)O1 (some centres undefined) was tested, and the T/C [18] was 169 % of control, the T/C [7] was 198 % of control and the T/C [19] was 308 % of control. The T/C [8] was 227 % of control.

C[C@]12CC[C@H](OC3OC(CO)C(O)C(O)C3O)C[C@H]1CC[C@@H]1[C@@H]2CC[C@]2(C)[C@@H](C3=CCOC3=O)CC[C@]12O (some centres undefined) was tested, and the T/C [20] was 107 % of control, the T/C [21] was 92 % of control and the T/C [22] was 105 % of control.

c1ccc(C2c3ccccc3C(c3ccccc3)(c3ccccc3)c3ccccc32)cc1 was tested, and the T/C [23] was 87 % of control, the T/C [14] was 101 % of control and the T/C [15] was 97 % of control. The T/C [16] was 86 % of control.

In the case of O=C(O)C1(C(=O)O)CCCCC1.[NH-]CC1(C[NH-])CCCCC1.[Pt+2], the T/C [18] is reported as 121 % of control, the T/C [7] is reported as 122 % of control and the T/C [19] is reported as 122 % of control.

For CC(C)=CCc1c2c(c(O)c3c(=O)c(-c4ccc(O)c(O)c4)coc13)C=CC(C)(C)O2, the T/C [2] was 100 % of control, the T/C [3] was 94 % of control and the T/C [4] was 94 % of control. For the same molecule, the T/C [5] was 100 % of control.

N=C(N)Sc1cc(O)ccc1O was tested, and the T/C [8] was 105 % of control, the T/C [9] was 94 % of control and the T/C [13] was 91 % of control.

C=C(C)CNC1=C(C)C(=O)C2=C(C1=O)[C@H](COC(N)=O)[C@]1(OC)[C@@H]3N[C@@H]3CN21 was tested, and the T/C (dose: 0.13 mg/kg/injection, schedule: Q01DX001 (ip), vehicle: distilled water + Tween-80) was 100 % of control, the T/C (dose: 0.25 mg/kg/injection, schedule: Q01DX001 (ip), vehicle: distilled water + Tween-80) was 114 % of control and the T/C (dose: 1.5 mg/kg/injection, schedule: Q04DX003 (ip), vehicle: distilled water + Tween-80) was 123 % of control. For the same molecule, the T/C (dose: 2.0 mg/kg/injection, schedule: Q01DX001 (ip), vehicle: distilled water + Tween-80) was 153 % of control, the T/C (dose: 3.0 mg/kg/injection, schedule: Q04DX003 (ip), vehicle: distilled water + Tween-80) was 157 % of control and the T/C (dose: 4.0 mg/kg/injection, schedule: Q01DX001 (ip), vehicle: distilled water + Tween-80) was 167 % of control. The T/C (dose: 6.0 mg/kg/injection, schedule: Q04DX003 (ip), vehicle: distilled water + Tween-80) was 215 % of control and the T/C (dose: 12.0 mg/kg/injection, schedule: Q04DX003 (ip), vehicle: distilled water + Tween-80) was 285 % of control.

In the case of Cc1noc(/N=C/c2ccccc2)c1C, the T/C [10] is reported as 108 % of control, the T/C [11] is reported as 105 % of control and the T/C [12] is reported as 108 % of control.

With CC1CCC2C1C1C(CCC2(C)O)C1(C)C (centres undefined) the T/C (dose: 75.0 mg/kg/injection, schedule: Q01DX009 (ip), vehicle: Klucel (hydroxypropylcellulose) (HPC)) was 97 % of control, the T/C (dose: 150.0 mg/kg/injection, schedule: Q01DX009 (ip), vehicle: Klucel (hydroxypropylcellulose) (HPC)) was 94 % of control and the T/C (dose: 300.0 mg/kg/injection, schedule: Q01DX009 (ip), vehicle: Klucel (hydroxypropylcellulose) (HPC)) was 97 % of control.

With O=c1[nH]c(=O)n([C@H]2CCCO2)cc1F the T/C (dose: 3.12 mg/kg/injection, schedule: Q01DX009 (ip), vehicle: saline) was 86 % of control, the T/C [23] was 98 % of control and the T/C [7] was 86 % of control. The T/C [14] was 94 % of control, the T/C [19] was 100 % of control and the T/C [15] was 97 % of control. For the same molecule, the T/C [8] was 95 % of control, the T/C [16] was 102 % of control and the T/C [9] was 102 % of control and 104 % of control.

With CC(=O)OC1CCC2(C)C(CCC3C4CC=C(C(C)=O)C4(C)CCC32)C1 (centres undefined) the T/C [16] was 86 % of control, the T/C [17] was 98 % of control and the T/C (dose: 400.0 mg/kg/injection, schedule: Q01DX009 (ip), vehicle: Klucel (hydroxypropylcellulose) (HPC)) was 90 % of control.

For Cc1c2ccnc(-c3ccccc3)c2cc2c1[nH]c1ccccc12, the T/C [2] was 115 % of control, the T/C [3] was 104 % of control and the T/C [4] was 94 % of control and 96 % of control.

With C1#CCCCCCC#CCCCC1 the T/C [1] was 89 % of control, the T/C (dose: 12.5 mg/kg/injection, schedule: Q04DX003 (ip), vehicle: saline with Tween-80) was 91 % of control and the T/C (dose: 25.0 mg/kg/injection, schedule: Q04DX003 (ip), vehicle: saline with Tween-80) was 97 % of control. The T/C [3] was 100 % of control and the T/C (dose: 50.0 mg/kg/injection, schedule: Q04DX003 (ip), vehicle: saline with Tween-80) was 89 % of control and 94 % of control.

With CC12CC3OC(=O)C1COC14OC5(C2C1=O)C(O)(CCC1C4CC(O)C2(O)CC=CC(=O)C12C)C(=O)OC35C (centres undefined) the T/C (dose: 3.0 mg/kg/injection, schedule: Q01DX009 (ip), vehicle: Klucel (hydroxypropylcellulose) (HPC)) was 120 % of control, the T/C (dose: 6.0 mg/kg/injection, schedule: Q01DX009 (ip), vehicle: Klucel (hydroxypropylcellulose) (HPC)) was 98 % of control and 124 % of control and the T/C (dose: 12.0 mg/kg/injection, schedule: Q01DX009 (ip), vehicle: Klucel (hydroxypropylcellulose) (HPC)) was 110 % of control and 118 % of control. For the same molecule, the T/C (dose: 24.0 mg/kg/injection, schedule: Q01DX009 (ip), vehicle: Klucel (hydroxypropylcellulose) (HPC)) was 113 % of control and 120 % of control and the T/C (dose: 48.0 mg/kg/injection, schedule: Q01DX009 (ip), vehicle: Klucel (hydroxypropylcellulose) (HPC)) was 120 % of control.

With O=Cc1cc([N+](=O)[O-])ccc1Cl the T/C [3] was 95 % of control and the T/C [4] was 92 % of control.

In the case of CCC(=O)OCC(=O)[C@]1(O)Cc2c(O)c3c(c(O)c2[C@@H](OC2CC(N)C(O)C(C)O2)C1)C(=O)c1c(OC)cccc1C3=O (some centres undefined), the T/C (dose: 0.25 mg/kg/injection, schedule: Q01DX009 (ip), vehicle: saline) is reported as 188 % of control, the T/C [20] is reported as 175 % of control and the T/C [21] is reported as 169 % of control and 195 % of control. For the same molecule, the T/C [22] was 177 % of control and 260 % of control.

COC1=C(N=[N+]=[N-])C(=O)C(OC)=C(N=[N+]=[N-])C1=O was tested, and the T/C [23] was 111 % of control, the T/C [14] was 95 % of control and the T/C [15] was 94 % of control. For the same molecule, the T/C [16] was 91 % of control.

In the case of NC(=O)CN1C(=O)c2ccccc2C1=O, the T/C [4] is reported as 97 % of control, the T/C [5] is reported as 104 % of control and the T/C [6] is reported as 97 % of control.
